# How the values were obtained:
# [1] = system: diabetic rats; settings: treated diabetic rats, experiments run in parallel
# [2] = system: rat treated neonatally with low doses of streptozocin; settings: in vivo
compound,measurement,setting,value
[Na+].[Na+].[O]=[W](=[O])([O-])[O-] [sodium tungstate],mortality,[1],about 10%
same,survival,[2],all animals survived
